Calls of active or inactive are those of the source.
Assays:
[1] = IC50 of Artemis nuclease activity blockers – biochemical, fluorescence intensity, dose response (AID 720701); type: functional;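 further: Artemis endonuclease enzyme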
[2] = off-target signal loss in HeLa-CEM21 co-culture – HeLa F-luc CTL cells, cherry-picked, counter-screen for HIV-1 Env fusion inhibitor project, dose response (AID 652040); type: functional, cell-based;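 further: potency for signal decrease marking cytotoxic or nonspecific inhibition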
[3] = HIV-1 AD8 envelope cell-cell fusion blockers – cherry-pick, dose response (AID 652062); type: functional, cell-based;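 further: luciferase signal from cell-cell fusion driven by HIV-1 clade B AD8 Env; potency is for inhibitors of fusion seen as a drop in luminescence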
[4] = blockers of HIV-1 ZM109 envelope-driven cell-cell fusion – HeLa effector, CEM target cells, luciferase, cherry-pick, dose response (AID 652058); type: functional, cell-based;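 further: luciferase signal from HIV-1 Env mediated cell-cell fusion of effector and target cells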
[5] = biological target: 5-hydroxytryptamine receptor 2A (Mus musculus, UniProt P35363); type: functional, cell-based;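 further: CHO-K1 cells with tagged receptor and beta-arrestin; agonist potency measured as compound-induced activation of the receptor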
5-hydroxytryptamine receptor 2A, sequence (P35363 whole entry): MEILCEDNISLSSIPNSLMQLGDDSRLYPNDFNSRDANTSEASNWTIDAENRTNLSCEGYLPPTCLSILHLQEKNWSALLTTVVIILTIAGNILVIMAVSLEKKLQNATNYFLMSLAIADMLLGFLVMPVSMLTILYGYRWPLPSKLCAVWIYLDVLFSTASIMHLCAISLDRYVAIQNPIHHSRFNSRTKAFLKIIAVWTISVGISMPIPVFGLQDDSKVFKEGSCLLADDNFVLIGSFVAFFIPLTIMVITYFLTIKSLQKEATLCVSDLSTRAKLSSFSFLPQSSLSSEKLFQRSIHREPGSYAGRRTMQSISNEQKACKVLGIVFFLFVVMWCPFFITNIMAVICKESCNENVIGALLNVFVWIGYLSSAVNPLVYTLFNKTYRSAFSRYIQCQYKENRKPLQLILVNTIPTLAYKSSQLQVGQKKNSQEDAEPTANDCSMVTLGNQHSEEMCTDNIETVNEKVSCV

Mu-type opioid receptor = Mu-type opioid receptor (Homo sapiens, UniProt P35372); type: functional, cell-based;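 further: U2OS cells with beta-arrestin recruitment to OPRM1 by beta-gal complementation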
Mu-type opioid receptor, sequence (P35372 whole entry): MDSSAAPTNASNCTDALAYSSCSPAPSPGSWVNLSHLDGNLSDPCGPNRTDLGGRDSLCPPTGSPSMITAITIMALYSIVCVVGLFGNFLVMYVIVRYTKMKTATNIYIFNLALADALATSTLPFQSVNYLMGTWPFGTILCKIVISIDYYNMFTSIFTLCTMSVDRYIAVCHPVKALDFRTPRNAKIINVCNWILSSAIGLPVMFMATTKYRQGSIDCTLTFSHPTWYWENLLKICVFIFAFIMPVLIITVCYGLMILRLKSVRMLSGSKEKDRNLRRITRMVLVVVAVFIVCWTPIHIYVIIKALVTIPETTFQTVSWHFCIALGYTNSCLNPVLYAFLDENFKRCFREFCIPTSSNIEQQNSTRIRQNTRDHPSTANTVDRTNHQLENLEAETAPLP

BJ [6] = test: growth inhibition of engineered Ras-driven BJ cells – cell-based, alamar blue fluorescence, cherrypicked samples, dose response (AID 2631); type: functional; settings: Homo sapiens;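 further: confirmatory dose-response assay in RAS-dependent BJ fibroblasts engineered with TERT, LT and ST, with cytotoxicity read by fluorescence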
BJ [7] = test: cells; type: functional, cell-based; settings: Homo sapiens
Paired box protein Pax-8 = Paired box protein Pax-8 (Homo sapiens, UniProt Q06710); test: PAX8 transcriptional activity inhibition in RMG-I – RMG-I cells, luciferase, cherry-pick, dose response (AID 687027); type: functional, cell-based;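 further: luciferase reporter driven by Pax8 target thyroperoxidase promoter measured by SteadyGlo luminescence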
Paired box protein Pax-8, sequence (Q06710 whole entry): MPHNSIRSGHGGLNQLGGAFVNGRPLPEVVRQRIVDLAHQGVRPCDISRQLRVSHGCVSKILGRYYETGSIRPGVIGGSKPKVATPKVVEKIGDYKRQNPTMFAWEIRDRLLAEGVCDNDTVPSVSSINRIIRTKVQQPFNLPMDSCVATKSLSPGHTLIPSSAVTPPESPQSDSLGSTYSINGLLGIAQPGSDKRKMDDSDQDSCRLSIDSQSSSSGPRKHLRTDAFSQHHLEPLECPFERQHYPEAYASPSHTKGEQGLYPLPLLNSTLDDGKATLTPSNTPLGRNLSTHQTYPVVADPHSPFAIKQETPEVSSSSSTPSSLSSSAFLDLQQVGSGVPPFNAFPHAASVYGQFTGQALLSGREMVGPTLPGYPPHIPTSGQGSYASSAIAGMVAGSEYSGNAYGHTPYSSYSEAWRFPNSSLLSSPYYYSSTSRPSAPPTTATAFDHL

BJ [8] = test: BJ-TERT fibroblast viability loss – cell-based, RAS-independent, luminescence, dose response (AID 1933); type: functional; settings: Homo sapiens
[9] = Luminescence Cell-Based Dose Retest to Confirm Inhibitors of Cancer Stem Cells. [Related pubchem assays (depositor defined):AID2717, AID2721]; type: functional; settings: Homo sapiens
[10] = DRD fibroblast viability loss – cell-based, non-viral oncogenic, luminescence, dose response (AID 1934); type: functional; settings: Homo sapiens
BJ [11] = test: BJ-TERT-LT-ST fibroblast viability loss – cell-based, RAS-independent, luminescence, dose response (AID 1935); type: functional; settings: Homo sapiens;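 further: BJ fibroblasts immortalized with TERT plus LT and ST oncogenes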
[12] = blockers of HIV-1 envelope-mediated cell-cell fusion – cherry-pick, dose response (AID 652057); type: functional, cell-based
[13] = activation of miR-122 Renilla sensor silencing – cell-based, Huh7 psiCHECK-miR122, Renilla luciferase, cherry-picked, dose response (AID 651956); type: functional;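 further: huh7 hepatoma cells stably carrying a psiCHECK-2 miR-122 sensor plasmid; renilla luciferase signal reporting endogenous miR-122 activity after 48 h compound exposure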
[14] = biological target: Heat shock protein HSP 90-alpha (Homo sapiens, UniProt P07900); type: functional, organism-based
[15] = biological target: T1, DNA repair protein RAD52 homolog (Homo sapiens, UniProt P43351); type: functional, biochemical
T1 sequence (P43351 whole entry): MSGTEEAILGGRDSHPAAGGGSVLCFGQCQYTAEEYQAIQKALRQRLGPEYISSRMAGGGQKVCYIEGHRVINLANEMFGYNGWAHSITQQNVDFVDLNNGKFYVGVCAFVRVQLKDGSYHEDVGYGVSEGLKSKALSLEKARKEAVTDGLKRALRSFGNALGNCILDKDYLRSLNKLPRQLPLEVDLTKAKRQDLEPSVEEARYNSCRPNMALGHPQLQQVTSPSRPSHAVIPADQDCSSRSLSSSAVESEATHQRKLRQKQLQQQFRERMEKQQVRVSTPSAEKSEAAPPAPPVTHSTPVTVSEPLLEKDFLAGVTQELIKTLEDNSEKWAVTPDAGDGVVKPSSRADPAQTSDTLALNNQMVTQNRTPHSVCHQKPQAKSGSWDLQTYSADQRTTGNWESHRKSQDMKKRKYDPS

[16] = biological target: T2, Ubiquitin-conjugating enzyme E2 N (Homo sapiens, UniProt P61088); type: functional;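 further: Dose-response confirmation in a TR-FRET assay detecting UBC13-driven polyubiquitin chain formation, inhibition measured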
T2 sequence (P61088 whole entry): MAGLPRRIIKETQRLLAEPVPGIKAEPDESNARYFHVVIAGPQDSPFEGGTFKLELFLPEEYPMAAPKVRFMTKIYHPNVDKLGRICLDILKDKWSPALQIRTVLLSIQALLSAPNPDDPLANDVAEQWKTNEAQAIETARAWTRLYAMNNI

[17] = NIH3T3 cell viability loss – ATP luminescence, mouse fibroblasts, counter-screen, dose response (AID 2010); type: functional, cell-based;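 further: cells exposed to compound for about 90 hours before reading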
Protein RecA = biological target: T3, Protein RecA (Mycobacterium tuberculosis, UniProt P9WHJ3); test: Fluorescence Cell-Free Homogeneous Dose Retest to Identify Inhibitors of RecA-Intein Splicing Activity. [Related pubchem assays (depositor defined):AID2097, AID2223, AID489010, AID492950]; type: functional
T3 sequence (P9WHJ3 whole entry): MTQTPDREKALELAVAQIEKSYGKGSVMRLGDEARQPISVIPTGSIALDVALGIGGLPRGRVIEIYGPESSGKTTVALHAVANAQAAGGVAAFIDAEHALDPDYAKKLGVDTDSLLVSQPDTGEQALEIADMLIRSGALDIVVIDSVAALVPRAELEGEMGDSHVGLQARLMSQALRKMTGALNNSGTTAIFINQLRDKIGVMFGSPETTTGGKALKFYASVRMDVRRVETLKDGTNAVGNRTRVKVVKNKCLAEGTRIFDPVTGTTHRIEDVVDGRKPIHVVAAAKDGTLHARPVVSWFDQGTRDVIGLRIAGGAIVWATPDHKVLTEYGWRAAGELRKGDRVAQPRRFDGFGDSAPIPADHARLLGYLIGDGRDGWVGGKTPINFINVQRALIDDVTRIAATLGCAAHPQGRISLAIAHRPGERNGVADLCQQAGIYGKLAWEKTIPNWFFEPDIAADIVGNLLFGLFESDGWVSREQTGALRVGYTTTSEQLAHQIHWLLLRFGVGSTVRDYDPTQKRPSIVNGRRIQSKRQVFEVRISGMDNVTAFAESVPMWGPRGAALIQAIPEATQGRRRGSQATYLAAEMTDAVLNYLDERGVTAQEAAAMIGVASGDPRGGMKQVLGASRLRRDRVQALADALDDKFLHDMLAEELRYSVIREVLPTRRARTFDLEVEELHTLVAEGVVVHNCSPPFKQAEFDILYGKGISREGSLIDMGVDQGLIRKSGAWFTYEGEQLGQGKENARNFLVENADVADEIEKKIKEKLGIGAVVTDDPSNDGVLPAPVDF

[18] = Trypanosoma cruzi growth suppression in host cells – NIH3T3 host cells, beta-gal luminescence, confirmation (AID 2044); type: functional, cell-based;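 further: intracellular parasites grown in NIH/3T3 mouse fibroblasts as host cells; luminescent beta-galactosidase reporter signal from transgenic T. cruzi replicating inside host cells; inhibitors lower the luminescence signal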
Genome polyprotein = Genome polyprotein (dengue virus type 2, UniProt P29990); test: flavivirus cap methylation enzyme inhibition – biochemical, confirmation dose response, primary screen (AID 588689); type: functional
Genome polyprotein, sequence (P29990 2492-3391 limits assumed): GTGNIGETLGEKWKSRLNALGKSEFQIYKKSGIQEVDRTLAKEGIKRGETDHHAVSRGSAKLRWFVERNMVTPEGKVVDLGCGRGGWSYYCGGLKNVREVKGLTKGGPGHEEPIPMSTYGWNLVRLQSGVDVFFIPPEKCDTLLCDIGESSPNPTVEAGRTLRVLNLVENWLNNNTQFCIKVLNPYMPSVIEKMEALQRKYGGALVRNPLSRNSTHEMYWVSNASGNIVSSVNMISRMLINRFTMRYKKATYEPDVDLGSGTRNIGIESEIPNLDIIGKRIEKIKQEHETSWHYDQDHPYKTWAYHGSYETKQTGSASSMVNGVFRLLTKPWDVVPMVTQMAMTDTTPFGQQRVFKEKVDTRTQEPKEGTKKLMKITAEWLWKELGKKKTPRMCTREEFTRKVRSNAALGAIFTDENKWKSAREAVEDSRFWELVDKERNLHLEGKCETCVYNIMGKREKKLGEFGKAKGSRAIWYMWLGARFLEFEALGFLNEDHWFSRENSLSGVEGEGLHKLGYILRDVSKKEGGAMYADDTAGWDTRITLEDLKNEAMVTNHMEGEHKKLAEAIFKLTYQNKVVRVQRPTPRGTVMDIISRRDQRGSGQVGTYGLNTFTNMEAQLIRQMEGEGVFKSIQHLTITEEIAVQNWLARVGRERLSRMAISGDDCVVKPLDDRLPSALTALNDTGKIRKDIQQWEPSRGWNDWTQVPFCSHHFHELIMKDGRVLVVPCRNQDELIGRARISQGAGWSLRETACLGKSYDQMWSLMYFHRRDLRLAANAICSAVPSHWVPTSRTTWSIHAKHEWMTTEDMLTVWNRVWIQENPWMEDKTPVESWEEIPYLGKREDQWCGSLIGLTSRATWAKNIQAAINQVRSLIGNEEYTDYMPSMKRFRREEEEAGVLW

Vero = test: viability of Vero cells under compound – cytotoxicity control for flavivirus capping enzyme inhibitors (AID 588742); type: functional; settings: Chlorocebus sabaeus
[19] = biological target: T4, Replicative DNA helicase DnaB (Mycobacterium tuberculosis, UniProt P9WMR3); test: DnaB intein splicing inhibitors, dose response, biochemical, cell-free fluorescence (AID 449749); type: functional
T4 sequence (P9WMR3 whole entry): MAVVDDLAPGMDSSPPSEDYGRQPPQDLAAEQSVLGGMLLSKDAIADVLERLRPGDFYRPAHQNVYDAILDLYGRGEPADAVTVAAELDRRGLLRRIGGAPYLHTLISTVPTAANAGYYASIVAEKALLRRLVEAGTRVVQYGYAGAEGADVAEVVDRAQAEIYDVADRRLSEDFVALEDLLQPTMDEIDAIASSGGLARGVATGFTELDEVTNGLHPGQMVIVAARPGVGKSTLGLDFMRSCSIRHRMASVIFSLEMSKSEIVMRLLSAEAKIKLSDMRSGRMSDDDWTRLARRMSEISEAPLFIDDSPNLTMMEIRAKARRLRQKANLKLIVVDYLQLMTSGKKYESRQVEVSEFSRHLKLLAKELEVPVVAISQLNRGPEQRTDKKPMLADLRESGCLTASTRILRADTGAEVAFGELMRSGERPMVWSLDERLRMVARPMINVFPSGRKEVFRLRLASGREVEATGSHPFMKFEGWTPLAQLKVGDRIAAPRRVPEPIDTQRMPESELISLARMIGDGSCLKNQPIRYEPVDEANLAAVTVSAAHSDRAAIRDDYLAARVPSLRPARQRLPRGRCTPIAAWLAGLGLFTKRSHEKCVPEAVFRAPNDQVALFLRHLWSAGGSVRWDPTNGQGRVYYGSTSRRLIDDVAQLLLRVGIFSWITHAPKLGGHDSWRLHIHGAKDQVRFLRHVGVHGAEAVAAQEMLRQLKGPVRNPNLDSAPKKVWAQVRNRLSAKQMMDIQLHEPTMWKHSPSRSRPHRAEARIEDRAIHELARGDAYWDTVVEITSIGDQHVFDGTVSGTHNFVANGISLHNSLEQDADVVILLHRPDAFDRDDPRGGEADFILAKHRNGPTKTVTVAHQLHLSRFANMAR

CC(C)(C)Nc1nc(NN)nc(NC(C)(C)C)n1
IC50 [1]: 17.9 µM (active)

CNc1nc2c(c(=O)n(C)c(=O)n2C)n1Cc1ccccc1
AC50 [2]: > 70 µM (inactive) | AC50 [3]: 13.9 µM (active) | AC50 [4]: 10.2 µM (active)

CCCCN(CC)CCCNC(=O)CC1Oc2ccccc2NC1=O (stereo unspecified)
EC50 [5]: 3.3 µM (active) | EC50 (Mu-type opioid receptor): 92.5 µM (inactive)

CC[C@@]1(O)C(=O)OCc2c1cc1n(c2=O)Cc2cc3c(NC(=O)CN)cccc3nc2-1
EC50 (BJ [6]): 0.418 µM (active) | EC50 (BJ [7]): 1.46 µM (active) | AC50 (Paired box protein Pax-8): 1.11 µM (active) | EC50 (BJ [8]): 10.3 µM (active) | AC50 [9]: 0.281 µM (active) | EC50 [10]: 2.4 µM (active) | EC50 (BJ [11]): 1.2 µM (active) | AC50 [2]: 0.896 µM (active) | AC50 [3]: 14.6 µM (active) | AC50 [12]: 0.618 µM (active) | AC50 [4]: < 0.26 µM (active)

Nc1ccc(Oc2ccc(Br)cc2)cc1
AC50 [13]: 0.378 µM (active)

O=C(c1cccs1)N1CCN(Cc2ccccc2)CC1
EC50 [5]: 1.02 µM (active) | EC50 (Mu-type opioid receptor): 92.4 µM (inactive)

Cc1ccc(CSc2nc3ccsc3c(=O)n2Cc2ccccn2)cc1
AC50 [14]: 5 µM (active)

COc1cccc2sc(N(CCCN(C)C)C(=O)c3sc4ccccc4c3Cl)nc12
AC50 [15]: 6.13 µM (active) | IC50 [16]: > 20 µM (inactive)

Cn1nc([N+](=O)[O-])c(C(C#N)c2ccccn2)c(Cl)c1=O (stereo unspecified)
EC50 [17]: > 30 µM (not active) | AC50 [9]: 5.48 µM (active) | EC50 (Protein RecA): 9.8 µM (active) | EC50 [18]: 4.82 µM (active) | IC50 (Genome polyprotein): 26.5 µM (active) | CC50 (Vero): 12 µM (active) | AC50 [19]: 25.8 µM (active)

CN(C)/C=C/C(=O)c1ccc(Oc2ccccc2)cc1
AC50 [14]: 4.26 µM (active)
